# In paper PMC10870048, “2,4‐Dihydroxybenzoic Acid, a Novel SA Derivative, Controls Plant Immunity via UGT95B17‐Mediated Glucosylation: A Case Study in Camellia Sinensis” (Advanced Science, 2023):
# Test system: T1, UGT95B17
# T1 construct: full-length ORF in pGEX-4T-1 (N-terminal GST tag of vector)
# Assay: UDP-Glo glycosyltransferase assay
# Format: biochemical, Camellia sinensis
# Conditions: UDP-glucose co-substrate, pH 7.5, 25 °C, 40 min; read-out: apparent KM
row,Km [µM],Compound
1,3.31 ± 0.58,"O=C(O)c1cccc(O)c1O [2,3-DHBA]"
2,0.81 ± 0.26,"O=C(O)c1ccc(O)cc1O [2,4-DHBA]"
3,0.31 ± 0.11,"O=C(O)c1cc(O)ccc1O [2,5-DHBA]"
